A word on the EC50: it is the concentration needed to bring the measured effect to its halfway point. By EC90 is commonly meant the concentration needed for an effect of 90%.

The source of these data is publication PMC7392643, “Antibiotic fidaxomicin is an RdRp inhibitor as a potential new therapeutic agent against Zika virus” (BMC Medicine, 2020).

Series [1] concerns the target T1, ZIKV NS5 full-length protein (Zika virus, UniProt A0A024B7W1).
T1 construct: NS5 (amino acids 1 to 903); His tag (8x histidine) (N); made in house; host or cells: Escherichia coli (Rosetta)
Nature of the series: SPR (BIAcore) binding to ZIKV NS5 full-length protein. The settings on record: qualitative. As for the experimental part: (§1) The cDNA fragment of ZIKV (ZG-01 strain) NS5 (amino acids 1 to 903), RdRp (amino acids 272 to 903), or DENV2 NS5 (amino acids 1 to 900) containing an N-terminal His tag sequence was cloned into a pET-30a-mutant vector. For protein expression, the plasmids were transformed into Rosetta™ competent cells (TIANGEN BIOTECH Co., Ltd., Beijing, China), respectively. […] Mass spectrometry was performed by Shanghai Applied Protein Technology Co. Ltd. (Shanghai, China). The concentration of a targeted protein was measured by SDS-PAGE using BSA (Sigma, St. Louis, MO) as a standard.
Surface plasmon resonance (SPR) experiments were performed in a BIAcore T100 device (BIAcore Inc., Uppsala, Sweden) using CM5 sensor chips (General Electric Company, GE) according to the protocol provided by the manufacturer. Briefly, recombinant ZIKV NS5 protein, RdRp protein, or DENV2 NS5 protein was immobilized on a CM5 chip, respectively. Different concentrations of fidaxomicin or ribavirin were injected at a flow rate of 30 μL/min for 3 min. Subsequently, data were collected for a 3-min association followed by a 20-min dissociation. The chip was regenerated by injecting 10 μL of 15 mM NaOH for 20 s. […] The binding kinetics was analyzed with the software BIAevaluation version 3.1 using a 1:1 Langmuir binding model. The Kd was calculated as previously described.
A general note: SPR reads the build-up and loss of mass on a sensor chip optically.

Series [2] can be described thus: in vitro. The settings on record: African green monkey.
Procedure: Cell viability was detected by the 3-(4,5-dimethyl-2-thiazolyl)-2,5-diphenyl-2H-tetrazolium bromide (MTT) assay according to a previously described method [48]. Briefly, cells were seeded in 96-well plates at a density of 1 × 10^4 cells per well and cultured at 37 °C for 24 h, followed by exposure to the serially diluted fidaxomicin or ribavirin separately for 48 h. Cell survival rate was determined by MTT reduction assay according to the manufacturer’s protocol (Invitrogen). The 50% cytotoxic concentration (CC50) was defined as the compound concentration required to inhibit the cell growth by 50% compared with the control assay. The assay was performed in triplicates in three independent experiments.
For series [3], the target named is T2, ZIKV RdRp protein (Zika virus, UniProt A0A024B7W1).
T2 construct: RdRp (amino acids 272 to 903); His tag (8x histidine) (N); made in house; host or cells: Escherichia coli (Rosetta)
Nature of the series: SPR (BIAcore) binding to ZIKV RdRp protein. The settings on record: qualitative. As for the experimental part: as §1
Surface plasmon resonance (SPR) experiments were performed in a BIAcore T100 device (BIAcore Inc., Uppsala, Sweden) using CM5 sensor chips (General Electric Company, GE) according to the protocol provided by the manufacturer. Briefly, recombinant ZIKV NS5 protein, RdRp protein, or DENV2 NS5 protein was immobilized on a CM5 chip, respectively. Different concentrations of fidaxomicin or ribavirin were injected at a flow rate of 30 μL/min for 3 min. Subsequently, data were collected for a 3-min association followed by a 20-min dissociation. The chip was regenerated by injecting 10 μL of 15 mM NaOH for 20 s. All procedures were run in 1% DMSO PBS-P20 (GE) as a running buffer. The binding kinetics was analyzed with the software BIAevaluation version 3.1 using a 1:1 Langmuir binding model. The Kd was calculated as previously described.

For series [4], the system named is ZIKV MR766 strain. The series is described as follows: In vitro antiviral assay, plaque assay, ZIKV MR766. The series is classed as cell-based. The settings on record: Zika virus, 48 h.
Procedure: Various cell lines, including SNB19 (6 × 10^4/well, 10% FBS DMEM), A172 (7 × 10^4/well, 10% FBS DMEM), Vero (6 × 10^4/well 10% FBS DMEM), Huh7 (7 × 10^4/well, 10% FBS DMEM), HUVECs (7 × 10^4/well, 15% FBS M199 medium supplemented with 2 mM L-glutamine, 0.02 mg/mL endothelial cell growth supplement, and 0.05 mg/mL heparin), and A549 (6 × 10^4/well, 5% FBS DMEM), were plated in 12-well plates and allowed to attach overnight, followed by infection with ZIKV (ZG-01 strain or MR766 strain, respectively, at indicated MOI) in the presence of different concentrations of fidaxomicin, ribavirin, or vehicle control for 1 h, followed by two washes with 1 × PBS and incubated with fresh medium (without virus) consisting of corresponding concentrations of the compounds for further 48 h. The cell supernatants were collected to quantify ZIKV infection by plaque assay as previously described [47] or by RT-qPCR.
Series [5] deals with ZIKV ZG-01 strain. Nature of the series: In vitro antiviral assay, plaque assay, ZIKV ZG-01. The settings on record: for EC50 / EC90: Zika virus. As to the method:
The anti-ZIKV activity of fidaxomicin and ribavirin was evaluated in vitro by plaque assay. Various cell lines, including SNB19 (6 × 10^4/well, 10% FBS DMEM), A172 (7 × 10^4/well, 10% FBS DMEM), Vero (6 × 10^4/well 10% FBS DMEM), Huh7 (7 × 10^4/well, 10% FBS DMEM), HUVECs (7 × 10^4/well, 15% FBS M199 medium supplemented with 2 mM L-glutamine, 0.02 mg/mL endothelial cell growth supplement, and 0.05 mg/mL heparin), and A549 (6 × 10^4/well, 5% FBS DMEM), were plated in 12-well plates and allowed to attach overnight, followed by infection with ZIKV (ZG-01 strain or MR766 strain, respectively, at indicated MOI) in the presence of different concentrations of fidaxomicin, ribavirin, or vehicle control for 1 h, followed by two washes with 1 × PBS and incubated with fresh medium (without virus) consisting of corresponding concentrations of the compounds for further 48 h. The cell supernatants were collected to quantify ZIKV infection by plaque assay as previously described or by RT-qPCR. […] The anti-DENV activity of fidaxomicin was evaluated in vitro by RT-qPCR.

T1 sequence (A0A024B7W1 2521-3423): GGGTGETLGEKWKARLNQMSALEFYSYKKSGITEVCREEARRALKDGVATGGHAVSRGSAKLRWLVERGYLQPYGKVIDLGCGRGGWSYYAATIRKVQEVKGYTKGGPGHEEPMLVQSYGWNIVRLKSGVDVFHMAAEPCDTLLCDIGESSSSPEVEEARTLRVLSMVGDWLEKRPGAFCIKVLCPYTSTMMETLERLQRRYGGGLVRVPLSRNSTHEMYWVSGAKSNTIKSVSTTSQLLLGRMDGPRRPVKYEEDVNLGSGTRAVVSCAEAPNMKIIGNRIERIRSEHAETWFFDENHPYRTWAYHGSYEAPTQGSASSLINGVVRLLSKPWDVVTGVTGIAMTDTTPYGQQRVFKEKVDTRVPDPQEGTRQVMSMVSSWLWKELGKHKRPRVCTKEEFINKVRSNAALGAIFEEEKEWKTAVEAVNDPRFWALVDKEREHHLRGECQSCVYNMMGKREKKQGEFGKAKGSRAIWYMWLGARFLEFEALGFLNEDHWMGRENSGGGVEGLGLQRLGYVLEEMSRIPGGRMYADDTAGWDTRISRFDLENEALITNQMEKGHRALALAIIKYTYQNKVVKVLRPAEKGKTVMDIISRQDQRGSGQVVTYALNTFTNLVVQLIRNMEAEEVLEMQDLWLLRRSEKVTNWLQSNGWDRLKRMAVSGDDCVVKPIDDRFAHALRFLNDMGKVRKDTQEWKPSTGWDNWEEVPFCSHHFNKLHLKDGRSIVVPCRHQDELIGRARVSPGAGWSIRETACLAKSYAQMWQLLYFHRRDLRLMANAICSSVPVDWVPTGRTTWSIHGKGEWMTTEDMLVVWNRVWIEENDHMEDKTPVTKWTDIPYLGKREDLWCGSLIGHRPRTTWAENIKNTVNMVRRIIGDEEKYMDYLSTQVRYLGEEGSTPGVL
T2 sequence (A0A024B7W1 2792-3423): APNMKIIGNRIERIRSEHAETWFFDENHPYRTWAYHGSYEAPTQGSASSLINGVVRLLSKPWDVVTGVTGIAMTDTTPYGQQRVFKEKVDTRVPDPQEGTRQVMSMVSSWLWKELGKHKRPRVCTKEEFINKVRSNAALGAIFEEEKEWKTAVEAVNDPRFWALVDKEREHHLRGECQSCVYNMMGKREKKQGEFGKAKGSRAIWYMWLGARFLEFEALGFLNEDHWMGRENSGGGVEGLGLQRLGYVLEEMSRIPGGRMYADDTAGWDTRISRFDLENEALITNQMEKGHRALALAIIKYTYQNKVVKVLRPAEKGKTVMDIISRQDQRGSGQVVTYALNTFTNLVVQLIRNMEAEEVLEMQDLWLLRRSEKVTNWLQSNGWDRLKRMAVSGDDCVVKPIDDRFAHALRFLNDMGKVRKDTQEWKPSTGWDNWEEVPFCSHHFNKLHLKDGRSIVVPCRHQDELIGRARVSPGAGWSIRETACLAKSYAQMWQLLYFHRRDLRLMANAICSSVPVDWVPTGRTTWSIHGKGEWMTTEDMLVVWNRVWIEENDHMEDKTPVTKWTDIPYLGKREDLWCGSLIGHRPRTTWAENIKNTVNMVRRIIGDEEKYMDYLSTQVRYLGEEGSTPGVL

Take `NC(=O)c1ncn([C@@H]2O[C@H](CO)[C@@H](O)[C@H]2O)n1` [Ribavirin, ribavirin]: the “binding to ZIKV NS5 protein (SPR)” value in series [1] is “very weak interaction”. Besides, the CC50 at 48 h in series [2] was 486 ± 20.1 µM. Also, the “binding to ZIKV RdRp protein (SPR)” value in series [3] is reported as “weak”. Further, the EC50 in series [4] (A549 cells) was 35.2 ± 5.2 µM; in series [4] (Huh-7, Huh7 cells), 15.6 ± 2.1 µM; in series [4] (SNB-19, SNB19 cells), greater than 100 µM; in series [4] (Vero cells), greater than 100 µM; in series [5] (A549, 48 h), 33.2 ± 3.4 µM; in series [5] (Huh-7, 48 h), 12.7 ± 2.3 µM. Also, the 50% effective concentration (EC50) in series [5] (SNB-19, 48 h) was greater than 100 µM; in series [5] (Vero, 48 h), greater than 100 µM. Moreover, the EC90 in series [4] (A549 cells) is 74.6 ± 8.5 µM; in series [4] (Huh-7, Huh7 cells), 58.3 ± 3.2 µM; in series [4] (SNB-19, SNB19 cells), greater than 100 µM; in series [4] (Vero cells), greater than 100 µM; in series [5] (A549, 48 h), 71.6 ± 6.2 µM; in series [5] (Huh-7, 48 h), 54.3 ± 3.5 µM. The EC90 is greater than 100 µM in series [5] (SNB-19, 48 h) and greater than 100 µM in series [5] (Vero, 48 h). Moreover, the “efficacy against ZIKV infection under non-cytotoxic concentration” value in series [5] (SNB19 cells) was “far less effective”.
